From patent US5770570A, “Method of delivering a vasoactive intestinal polypeptide, an encapsulated vasoactive intestinal polypeptide, and a method of making the encapsulated vasoactive intestinal polypeptide” (priority 1995, dated 1998)
Where “and” joins values, the source holds several entries; their conditions need not be identical. Equal values may be shown once. Ends that are not written are not given here. * marks the point of attachment. 125I = [125I]*

Key:
PG/PC/CH liposomes = assay: Binding of VIP by pre-formed lipid liposomes (PG/PC/CH); conditions: for binding of radiolabeled VIP by liposomes, % of available peptide: liposomes 2.5-45.6 mM Pi, 0.42 nM peptide
Description: (§1) Unilaminar phospholipid liposomes were formed using phosphatidylcholine (PC) and phosphatidylglycerol (PG) purified from egg yolk (Sigma). The fatty acid composition of the phospholipids determined by Sigma was: (PC, C16:0), (35%; C18:0, 12%; C18:1, 31%; C18:2, 14%); (PG, C16:0, 30%, C18:0, 13%; C18:1, 30%; C18:2, 16%). The unilamellar liposomes were prepared by reverse-phase evaporation as disclosed in Szoka, Jr., F. and Papahadjopoulos (1978) Proc. Natl. Acad. Sci. USA 75, 4194-4198), from a mixture of PG/PC/CH(cholesterol) (molar ratio 1:4:5) or PC/CH (1:1) dissolved in chloroform.
Peptide was permitted to bind liposome surface in aqueous solution. In organic solvents as in Example I, the peptide will be expressed in as well as on the lipid membranes of liposomes.
The liposomes were the pelleted (12,000×g, 10 min; Beckman centrifuge MICROFUGE®). The supernatant was aspirated and the liposome-associatedradioactivity was measured at 70% efficiency (Beckman model 5500 gamma counter). There was minimal loss of the liposomes in the supernatant, because more than 90% of the inorganic phosphate present in the reaction mixture was recovered in the pellet.
The binding data was corrected for peptide adsorption by the reaction tubes determined in parallel incubations.
Dissociation and saturability data were analyzed by means of Kinetic and Enzfitter (Elsevier Biosoft).
The binding of the VIP to the liposome was determined as follows. Unilamellar lipid liposomes were prepared by reverse evaporation and assayed for binding of radiolabeled VIP, as described above. BSA was included in the assay diluent to saturate nonspecific polypeptide binding sites in the lipid liposomes and the polypropylene surface of the reaction tubes.
(§2) Values are means±s.d. Probe-binding was with pre-formed liposomes (2.3 mM Pi) and 100 nM CF or 0.2 nM (tyr^10 -^125 I)VIP mixed with 100 nM unlabeled peptide. Encapsulation was by making liposomes from lipid solutions (2.6 mM Pi) containing 2.5 μM CF or 1.7 nM (Tyr^10 -^125 I)VIP mixed with 2.5 μM unlabeled VIP. Free probes were removed by three washes with 50 mM HEPES, pH 7.3, containing 0.5% BSA. CF values were determined by fluorimetry after solubilization of liposomes, and VIP values, by measurement of liposome-associated radioactivity.
FIG. 5 illustrates the results of the competitive inhibition of binding of (Tyr^10-^125)VIP (0.26 nM) by the liposomes (2.4 mM Pi) by unlabeled VIP (10 nM-1 mM). Data are means±s.d expressed as % of available radiolabeled peptide. […]

[1] = Release (leakage) of VIP from liposomes stored in buffer; assay type: physicochemical; conditions: stored in buffer at 4° C. for 14 days
Description: The release of VIP from the liposomes was determined as follows.
The peptide release from liposomes containing (tyr^10 -^125 I)VIP, approximately 20,000 cpm, kept at 4° C. in 50 mM HEPES, pH 7.3, containing 0.02% […] was determined by centrifugation of aliquots of the suspension at 12,400×g for 15 minutes and measurement of radioactivity in the supernatants.

[2] = Encapsulation of probes by making liposomes in their presence (Table 1); assay type: physicochemical; conditions: liposomes made from lipid solutions 2.6 mM Pi containing 2.5 μM probe
Description: as §2

PC/PG liposomes = assay: Binding of VIP by liposomes without cholesterol (PC/PG); conditions: PC/PG liposomes (no cholesterol)
[3] = tested on: hamster check pouch microcirculation; assay: Untoward effects and leaky sites in check pouch microcirculation; assay type: in vivo; conditions: i.v. infusion in hamsters
Description: (§3) The animals were kept on a heated pad throughout the duration of the experiment. Arterial blood pressure was recorded continuously using a pressure transducer and a strip-chart recorder (Model 7702B, Hewlett-Packard). The microcirculation of the hamster check pouch was visualized using intravital microscopy and clearance of fluorescein isothiocyanic-dextran (M.W.=70 RD; Sigma) from postcapillary venules and determined as described in W. G. Mayhan and I. Rubinstein, J. Appl. Physiol., 75, pp. 27-32 (1993).
(§4) The number of leaky sites in check pouch microcirculation was determined every minute throughout the duration of the experiments as disclosed in W. G. Mayhan, Supra. The data is expressed as means±SEM. Students t-test for unpaired observations was used to compare responses to vasoactive intestinal peptide. A p value<0.05 was considered to be significant.

[4] = tested on: male golden Syrian hamsters; assay: Hypotensive effect (mean arterial blood pressure) in anesthetized hamsters; assay type: in vivo, hamster
Description: The hamsters were first prepared by anesthetizing intravenously 6 mg of sodium pentobarbital per 100 g of body weight. A tracheostomy was then performed to facilitate spontaneous breathing. Supplemental anesthesia was administered intravenously as necessary at 2-4 mg/100 g body weight/hour. A femoral artery was cannulated for blood pressure monitoring. A femoral vein was cannulated for drug and florescent tracer administration.
as §3
In each hamster, 1 ml aliquots of increasing concentrations of VIP dissolved in 0.15M sodium chloride or encapsulated in liposomes (1 nmol VIP/0.12 μmol phospholipids) were infused intravenously for 7 minutes.
Mean arterial blood pressure was recorded before, during, and for 60 minutes after administration of each concentration of the peptide.
as §4
The effect on blood pressure was determined by measuring the magnitude of reduction in mean arterial blood pressure (MAP) as a function of time following infusion of VIP dissolved in saline or encapsulated in liposomes.

PC/CH liposomes = assay: Binding of VIP by electrically neutral liposomes (PC/CH); conditions: VIP 100 nM
Description: as §1
The binding of VIP (100 nM) by electrically neutral and negative liposomes prepared from PC/CH and PG/PC/CH, respectively, was compared. In each case, the levels of peptide binding increased within increasing concentration of the liposomes. The values of % VIP bound±s.d./μmol Pi were, PG/PC/CH liposomes, 26.2+3.4; PC/CH liposomes, 12.6±1.5. […] The inclusion of cholesterol, an agent that can be expected to decrease bilayer fluidity at the temperatures used in this study, as reported in Demel, R. A. and DeKruyff, B. (1976) Biochim. Biophys.

[5] = Release of liposome-bound VIP by solvent treatments (Table 2); assay type: physicochemical; conditions: twice 1 ml for 10 min, 23° C.
Description: Lipid liposomes (4 mM Pi) were permitted to bind (Tyr^10 -^125 I)VIP (1 nM), washed extensively to remove unbound radioactivity and then treated twice with 1 ml of the indicated solutions for 10 min (23° C.). Released radioactivity was determined in the pooled supernatant obtained by centrifugation. Values are % of initial liposome-bound radioactivity (76,300 CPM), corrected for peptide release in control incubations performed in 50 mM HEPES, pH 7.3 (4.2±3.4%).

[6] = target: (tyr^10 -^125 I)VIP (radioiodinated synthetic vasoactive intestinal polypeptide)
[7] = pre-formed liposomes 2.3 mM Pi, 100 nM CF or 0.2 nM tracer with 100 nM unlabeled VIP

With “(tyr^10 -^125 I)VIP: VIP radioiodinated at tyrosine 10, used as tracer (HSDAVFTDNY(125I)TRLLRKQMAVKKYLNSILN-NH2)” the “binding of radiolabeled VIP by liposomes, % of available peptide” value (PG/PC/CH liposomes) was “up to 56.6%”, the “binding of radiolabeled VIP by liposomes, % of available peptide” value (PG/PC/CH liposomes; listed as radiolabeled VIP) was “up to 60%” and the “leakage of (tyr10-125I)VIP from the liposomes” value [1] was < 2 % of available radioactivity.

For “HSDAVFTDNYTRLLRKQMAVKKYLNSILN-NH2 (not fully specified (residue 10); printed as HSDAVFTDNYTRLLRKQMAVKKYLNSILN-NH2) [VIP, synthetic 28-amino acid neuropeptide; conventional VIP solution used as comparator]”, the “Encapsulation” value [2] was 37.5 ± 5.0 nM, the “% VIP bound/μmole Pi” value (PC/PG liposomes) was 24.9% and the “untoward effects during infusion” value [3] was “did not display detectable untoward effects”. The “decrease in MAP” value ([4]; 1 nmole per hamster) was “weak and transient decrease in MAP”, the “time at which a significant decrease in MAP was observed” value ([4]; 1 nmole per hamster, i.v. infusion 7 minutes) was 5 min and the “MAP values for treated animals (FIG. 2 legend, apparently baseline)” value ([4]; 1.0 nmole, 7 minutes i.v. infusion, n=5) was 93.0 mm Hg. The “return of arterial blood pressure to pre-infusion baseline” value ([4]; 1 nmole, FIG. 2) was 9 min, the “reversibility of the hypotensive effect” value ([4]; hamster, in vivo) was “fully reversible” and the “% VIP bound/μmol Pi” value (PC/CH liposomes) was 12.6±1.5%. For the same substance, the “apparent binding capacity at saturating VIP concentrations” value (PG/PC/CH liposomes) was 1 mol VIP/12.5 mol phospholipid, the IC50 (PG/PC/CH liposomes; 0.26 nM tracer, liposomes 2.4 mM Pi, read-out: IC50, competitive inhibition of partitioning of (Tyr10-125I)VIP into liposomes) was 560 µM and the “% VIP bound/μmol Pi” value (PG/PC/CH liposomes; VIP 100 nM, PG/PC/CH liposomes) was 26.2 ± 3.4% and 26.2%. The partition constant derived from the binding isotherm (PG/PC/CH liposomes; nominal value, neutral pH) was 1400 M⁻¹, the “Binding” value (PG/PC/CH liposomes; [7]) was 20.5 ± 1.0 nM and the “% VIP released” value ([5]; 1 mM HCl) was 3.0 ± 3.5%. For the same substance, the “% VIP released” value ([5]; 1 mM NaOH) was 15.9 ± 4.0%, the “% VIP released” value ([5]; 25 mM EDTA) was 8.1 ± 10.0% and the “% VIP released” value ([5]; 1% SDS) was 81.1 ± 9.6%. For the same substance, the “% VIP released” value ([5]; 1 M NaCl) was 2.7 ± 3.0%.

In the case of carboxyfluorescein [CF], the “Encapsulation” value [2] is reported as 82.5 ± 7.5 nM, the “Binding” value (PG/PC/CH liposomes; [7]) is reported as 0.01 ± 0.001 nM and the “Binding, nM” value (PG/PC/CH liposomes; pre-formed liposomes 2.3 mM Pi, 100 nM CF or 0.2 nM tracer with 100 nM unlabeled VIP, listed as carboxyfluorescein) is reported as “very small amounts”.

“trypsin from bovine pancreas (Sigma) (from UniProt P00760) (enzyme)” showed a peptide hydrolysis (trichloroacetic acid-soluble radioactivity of (tyr^10 -^125 I)VIP) [6] of 80 % digested.
